# Assay results from ChEMBL document CHEMBL6120941, “Discovery of SIRT1-Activating Hydrogen Sulfide Donating Derivatives for Efficient Resistant of Myocardial Ischemic Injury” (J Med Chem, 2024).
# Activity calls are given as the source filed them. No cut-off for these calls is given here.
# Key:
# [1] = Induction of H2S release in PBS at pH 7.4 at 100 uM measured upto 60 mins by methylene blue method; type: functional
# H9c2 [2] = assay: Cardioprotective activity against CoCl2-induced cellular hypoxia injury in rat H9c2 cells assessed as cell viability at 1.25 uM incubated for 24 hrs by CCK-8 assay (reference value: 51.80 +/- 2.58 %); type: functional; settings: read-out: Activity
# H9c2 [3] = assay: Cardioprotective activity against CoCl2-induced cellular hypoxia injury in rat H9c2 cells assessed as cell viability at 2.5 uM incubated for 24 hrs by CCK-8 assay (reference value: 51.80 +/- 2.58 %); type: functional; settings: read-out: Activity
# H9c2 [4] = assay: Cardioprotective activity against CoCl2-induced cellular hypoxia injury in rat H9c2 cells assessed as cell viability at 10 uM incubated for 24 hrs by CCK-8 assay (reference value: 51.80 +/- 2.58 %); type: functional; settings: read-out: Activity
# H9c2 [5] = assay: Cardioprotective activity against CoCl2-induced cellular hypoxia injury in rat H9c2 cells assessed as increase in cell viability at 30 uM incubated for 24 hrs by CCK-8 assay; type: functional, cell-based
# H9c2 [6] = assay: Cardioprotective activity against CoCl2-induced cellular hypoxia injury in rat H9c2 cells assessed as cell viability at 0.625 uM incubated for 24 hrs by CCK-8 assay (reference value: 51.80 +/- 2.58 %); type: functional; settings: read-out: Activity
# [7] = Induction of H2S release in PBS at pH 7.4 measured upto 60 mins by methylene blue method; type: functional
# H9c2 [8] = assay: Cardioprotective activity against CoCl2-induced cellular hypoxia injury in rat H9c2 cells assessed as cell viability at 5 uM incubated for 24 hrs by CCK-8 assay (reference value: 51.80 +/- 2.58 %); type: functional; settings: read-out: Activity
# H9c2 [9] = assay: Induction of H2S release in rat H9c2 cells incubated for 24 hrs by AzMC probe based analysis; type: functional, cell-based; settings: dose 1.25-10 µM
# H9c2 [10] = assay: Inhibition of apoptosis in CoCl2-induced cellular hypoxia injury in rat H9c2 cells assessed as decrease in Bax level at 5 to 10 uM incubated for 24 hrs by Western blot analysis; type: functional, cell-based; settings: dose 5-10 µM
# H9c2 [11] = assay: Inhibition of apoptosis in CoCl2-induced cellular hypoxia injury in rat H9c2 cells assessed as increase in caspase-3 level at 5 to 10 uM incubated for 24 hrs by Western blot analysis; type: functional, cell-based; settings: dose 5-10 µM
# Rattus norvegicus [12] = assay: Cardioprotective activity against myocardial ischemia Sprague-Dawley rat model assessed as increase in PGC1-alpha level in myocardial tissue at 50 mg/kg, IG treated for 7 days consecutively followed by ISO administration daily for 2 days consecutively by Western blot analysis; type: functional, organism-based; settings: time 9.0 day
# H9c2 [13] = assay: Inhibition of apoptosis in CoCl2-induced cellular hypoxia injury in rat H9c2 cells assessed as increase in Bcl-2 level at 5 to 10 uM incubated for 24 hrs by Western blot analysis; type: functional, cell-based; settings: dose 5-10 µM
# Rattus norvegicus [14] = assay: Cardioprotective activity in myocardial ischemia Sprague-Dawley rat model assessed as decrease in ISO-induced ST segment at 50 mg/kg, IG treated for 7 days consecutively followed by ISO administration daily for 2 days consecutively by ECG analysis; type: functional, organism-based; settings: time 9.0 day
# H9c2 [15] = assay: Cardioprotective activity against CoCl2-induced cellular hypoxia injury in rat H9c2 cells assessed as reduction in necrosis at 50 uM incubated for 24 hrs by flow cytometry; type: functional, cell-based
# H9c2 [16] = assay: Cardioprotective activity against CoCl2-induced cellular hypoxia injury in rat H9c2 cells assessed as mitochondrial membrane potential at 50 uM incubated for 24 hrs by JC-1 staining based analysis (reference value: 48.08 %); type: functional
# [17] = target: T1, NAD-dependent protein deacetylase sirtuin-1 (Rattus norvegicus) (UniProt A0A0G2JZ79); assay: Activation of SIRT1 in CoCl2-induced cellular hypoxia injury in rat H9c2 cells at 50 uM incubated for 24 hrs by Western blot analysis; type: cell-based; settings: filed as activator
# T1 sequence (whole entry): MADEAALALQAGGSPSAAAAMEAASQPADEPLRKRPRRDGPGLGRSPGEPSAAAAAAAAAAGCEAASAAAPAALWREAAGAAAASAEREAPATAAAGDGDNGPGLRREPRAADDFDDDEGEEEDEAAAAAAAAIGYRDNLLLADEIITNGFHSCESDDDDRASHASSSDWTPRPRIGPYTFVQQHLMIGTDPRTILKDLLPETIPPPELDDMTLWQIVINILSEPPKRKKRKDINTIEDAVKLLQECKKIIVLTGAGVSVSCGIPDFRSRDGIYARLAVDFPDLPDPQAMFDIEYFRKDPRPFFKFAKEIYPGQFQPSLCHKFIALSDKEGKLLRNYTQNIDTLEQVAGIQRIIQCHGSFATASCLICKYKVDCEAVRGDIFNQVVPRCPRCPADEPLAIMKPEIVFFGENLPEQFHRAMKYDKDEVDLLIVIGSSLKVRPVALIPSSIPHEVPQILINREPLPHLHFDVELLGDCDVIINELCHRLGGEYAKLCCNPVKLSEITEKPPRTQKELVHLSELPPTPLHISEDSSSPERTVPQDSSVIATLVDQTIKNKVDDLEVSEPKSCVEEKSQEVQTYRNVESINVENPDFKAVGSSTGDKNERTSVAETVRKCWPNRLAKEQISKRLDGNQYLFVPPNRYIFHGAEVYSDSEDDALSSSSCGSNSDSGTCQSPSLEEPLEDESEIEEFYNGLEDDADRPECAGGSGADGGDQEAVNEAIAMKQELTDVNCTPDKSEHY
# Rattus norvegicus [18] = assay: In vivo activation of SIRT1 in myocardial tissue of myocardial ischemia Sprague-Dawley rat model at 50 mg/kg, IG treated for 7 days consecutively followed by ISO administration daily for 2 days consecutively by Western blot analysis; type: functional, organism-based; settings: time 9.0 day
# H9c2 [19] = assay: Cardioprotective activity against CoCl2-induced cellular hypoxia injury in rat H9c2 cells assessed as increase in PGC1-alpha level at 50 uM incubated for 24 hrs by Western blot analysis; type: functional, cell-based
# H9c2 [20] = assay: Cardioprotective activity against CoCl2-induced cellular hypoxia injury in rat H9c2 cells assessed as reduction in apoptosis at 50 uM incubated for 24 hrs by flow cytometry; type: functional, cell-based
# [21] = target: T2, NAD-dependent protein deacetylase sirtuin-1 (Homo sapiens) (UniProt Q96EB6); assay: Activation of SIRT1 (unknown origin) using RHKK-ac-AMC as substrate incubated for 2 hrs by FDL assay relative to control; settings: filed as activator
# T2 sequence (whole entry): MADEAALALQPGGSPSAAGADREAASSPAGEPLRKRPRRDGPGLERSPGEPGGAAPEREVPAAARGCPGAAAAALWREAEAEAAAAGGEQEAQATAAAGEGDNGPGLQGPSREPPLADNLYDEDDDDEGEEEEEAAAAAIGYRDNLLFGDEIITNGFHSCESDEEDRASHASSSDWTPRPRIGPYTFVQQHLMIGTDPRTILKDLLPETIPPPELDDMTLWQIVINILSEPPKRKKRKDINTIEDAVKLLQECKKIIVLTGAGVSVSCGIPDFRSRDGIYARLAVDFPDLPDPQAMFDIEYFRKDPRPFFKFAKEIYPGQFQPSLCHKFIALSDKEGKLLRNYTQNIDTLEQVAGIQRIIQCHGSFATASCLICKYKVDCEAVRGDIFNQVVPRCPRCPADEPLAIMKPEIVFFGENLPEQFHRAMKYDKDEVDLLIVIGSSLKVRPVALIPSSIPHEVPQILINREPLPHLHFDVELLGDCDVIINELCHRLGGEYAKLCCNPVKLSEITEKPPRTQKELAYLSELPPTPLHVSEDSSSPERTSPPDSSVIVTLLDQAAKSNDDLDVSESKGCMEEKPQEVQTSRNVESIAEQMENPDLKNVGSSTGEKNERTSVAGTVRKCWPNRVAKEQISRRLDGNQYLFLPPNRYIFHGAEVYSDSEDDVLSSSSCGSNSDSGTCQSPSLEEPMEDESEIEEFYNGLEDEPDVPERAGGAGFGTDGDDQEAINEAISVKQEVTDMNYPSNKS
SMILES,Activity [1],viability at 1.25 µM (H9c2 [2]) [%],viability at 2.5 µM (H9c2 [3]) [%],viability at 10 µM (H9c2 [4]) [%],Activity (H9c2 [5]),viability at 0.625 µM (H9c2 [6]) [%],Activity [7] [µM],viability at 5 µM (H9c2 [8]) [%],Activity (H9c2 [9]),also measured
CC(C)(O)[C@H]1CC[C@@](C)([C@H]2CC[C@]3(C)[C@@H]2[C@H](O)C[C@@H]2[C@@]4(C)CC[C@H](OC(=O)CCC(=O)Oc5ccc(-c6nc(=O)ss6)cc5)C(C)(C)[C@@H]4CC[C@]23C)O1,Active,82,84.7,91.4,inactive,76.4,7,86.8,Dose-dependent-effect,–
CC(C)(O)[C@@H]1CC[C@@](C)([C@H]2CC[C@]3(C)[C@@H]2[C@H](O)C[C@@H]2[C@@]4(C)CC[C@H](OC(=O)CCC(=O)Oc5ccc(-c6nc(=O)ss6)cc5)C(C)(C)[C@@H]4[C@@H](O)C[C@]23C)O1,Active,77.4,83.7,94.2,inactive,70.1,10.5,89.1,Dose-dependent-effect,–
Oc1ccc(/C=C/c2cc(O)cc(O)c2)cc1 [RESVERATROL],–,58.8,64.1,76.1,–,58.3,–,68.5,–,inhibition (H9c2 [10]): Active; inhibition (H9c2 [11]): Active; Activity (Rattus norvegicus [12]): Active; inhibition (H9c2 [13]): Active; Activity (Rattus norvegicus [14]): Active; Activity (H9c2 [15]): Active; Activity (H9c2 [16]): 73.27%; Activity [17]: Active; Activity (Rattus norvegicus [18]): Active; Activity (H9c2 [19]): Active; Activity (H9c2 [20]): Active; Activity [21]: 158%
CC(C)(O)[C@@H]1CC[C@@](C)([C@H]2CC[C@]3(C)[C@@H]2[C@H](O)C[C@@H]2[C@@]4(C)CC[C@H](O)C(C)(C)[C@@H]4CC[C@]23C)O1,–,72.6,74.8,81.2,inactive,70.6,–,79.1,–,Activity [21]: 123%
C=CCSSCCC(=O)O[C@H]1CC[C@]2(C)[C@H]3C[C@@H](O)[C@@H]4[C@@H]([C@]5(C)CC[C@@H](C(C)(C)O)O5)CC[C@@]4(C)[C@]3(C)C[C@H](O)[C@H]2C1(C)C,Active,74.2,79.1,95.3,inactive,74.7,17.4,89.1,Dose-dependent-effect,–
CC(C)(O)[C@@H]1CC[C@@](C)([C@H]2CC[C@]3(C)[C@@H]2[C@H](O)C[C@@H]2[C@@]4(C)CC[C@H](OC(=O)CCC(=O)Oc5ccc(-c6nc(=O)ss6)cc5)C(C)(C)[C@@H]4CC[C@]23C)O1,Active,81.6,87.7,92.2,inactive,73.5,10,91,Dose-dependent-effect,–
O=C(O)CCC(=O)Oc1ccc(-c2cc(=S)ss2)cc1,–,67.4,74.3,80.3,inactive,66.4,–,77.6,–,–
CC(C)(O)[C@@H]1CC[C@@](C)([C@H]2CC[C@]3(C)[C@@H]2[C@H](O)C[C@@H]2[C@@]4(C)CC[C@H](OC(=O)CCC(=O)Oc5ccc(-c6cc(=S)ss6)cc5)C(C)(C)[C@@H]4[C@@H](O)C[C@]23C)O1,–,73.6,76.9,75.2,inactive,68.4,–,77.2,–,–
CC(C)(O)[C@H]1CC[C@@](C)([C@H]2CC[C@]3(C)[C@@H]2[C@H](O)C[C@@H]2[C@@]4(C)CC[C@H](OC(=O)c5ccc(N=C=S)cc5)C(C)(C)[C@@H]4[C@@H](O)C[C@]23C)O1,–,59.6,57.1,58.5,inactive,52.5,–,58.6,–,–
CC(C)(O)[C@@H]1CC[C@@](C)([C@H]2CC[C@]3(C)[C@@H]2[C@H](O)C[C@@H]2[C@@]4(C)CC[C@H](O)C(C)(C)[C@@H]4[C@@H](O)C[C@]23C)O1 [PROTOPANAXATRIOL OXIDE II],–,54,56.7,73.4,inactive,52,–,69.6,–,–
CC(C)=CCC[C@](C)(O)[C@H]1CC[C@]2(C)[C@@H]1[C@H](O)C[C@@H]1[C@@]3(C)CC[C@H](O)C(C)(C)[C@@H]3[C@@H](O)C[C@]12C,–,66.8,67.3,71.6,inactive,66,–,71.4,–,–
